From ChEMBL document CHEMBL1201862, “PubChem BioAssay data set” (2004)
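Where inhibition never reached the appropriate level, the endpoint shown equals the highest concentration tested. Otherwise, values were interpolated linearly from a five-concentration, 48-hour dose response in 96-well plates. At the GI50, growth is halved.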 Active and inactive are the calls of the source. No stated cut-off is given here; in the data, active = GI50 up to about 1.1 µM and inactive = higher.

Legend:
Test in all cases: growth of human tumour cells (NCI), 48 h
PC-3 = test system: PC-3
T47D = test system: T47D
SK-MEL-28 = test system: SK-MEL-28
TK-10 = test system: TK-10
SK-MEL-5 = test system: SK-MEL-5
SF-295 = test system: SF-295
K562 = test system: K562
HT-29 = test system: HT-29
A498 = test system: A498
SF-268 = test system: SF-268
MOLT-4 = test system: MOLT-4
ACHN = test system: ACHN
Malme-3M = test system: Malme-3M
LOX IMVI = test system: LOX IMVI
MDA-MB-435 = test system: MDA-MB-435
OVCAR-5 = test system: OVCAR-5
786-0 = test system: 786-0
HOP-62 = test system: HOP-62
RPMI-8226 = test system: RPMI-8226

Measured: GI50

Cc1ccc(S(=O)(=O)N/N=C2\CC3C4C=CC3C2C4)cc1 (stereo unspecified)
inactive: PC-3 > 100 µM | T47D > 100 µM | SK-MEL-28 > 100 µM | TK-10 > 100 µM | SK-MEL-5 > 100 µM | SF-295 > 100 µM | K562 > 100 µM | HT-29 > 100 µM | A498 > 100 µM | SF-268 > 100 µM | MOLT-4 > 100 µM | ACHN > 100 µM | Malme-3M > 100 µM | LOX IMVI > 100 µM | MDA-MB-435 > 100 µM | OVCAR-5 > 100 µM | 786-0 > 100 µM | HOP-62 > 100 µM

CC(C)(C)C(=O)C(C#N)C(=O)C(C)(C)C
inactive: PC-3 > 100 µM | T47D > 100 µM | SK-MEL-28 > 100 µM | TK-10 > 100 µM | SK-MEL-5 > 100 µM | SF-295 > 100 µM | K562 > 100 µM | HT-29 > 100 µM | A498 > 100 µM | SF-268 > 100 µM | RPMI-8226 > 100 µM | MOLT-4 > 100 µM | ACHN > 100 µM | Malme-3M > 100 µM | LOX IMVI > 100 µM | MDA-MB-435 > 100 µM | OVCAR-5 > 100 µM | 786-0 > 100 µM | HOP-62 > 100 µM

COc1ccccc1CC(=O)C(O)(C(F)(F)F)C(F)(F)F
inactive: PC-3 > 100 µM | T47D > 100 µM | SK-MEL-28 > 100 µM | TK-10 > 100 µM | SK-MEL-5 > 100 µM | SF-295 > 100 µM | K562 > 100 µM | HT-29 > 100 µM | A498 > 100 µM | SF-268 > 100 µM | RPMI-8226 > 100 µM | MOLT-4 > 100 µM | ACHN > 100 µM | Malme-3M > 100 µM | LOX IMVI > 100 µM | MDA-MB-435 > 100 µM | OVCAR-5 > 100 µM | 786-0 > 100 µM | HOP-62 > 100 µM

C/C(=N/NC(=O)C(N)=O)C(CC(C(=O)Nc1ccccc1C)/C(C)=N\NC(=O)C(N)=O)C(=O)Nc1ccccc1C (stereo unspecified)
inactive: SK-MEL-28 > 100 µM | TK-10 > 100 µM | SK-MEL-5 > 100 µM | SF-295 > 100 µM | K562 > 100 µM | HT-29 > 100 µM | A498 > 100 µM | SF-268 > 100 µM | RPMI-8226 > 100 µM | MOLT-4 75.9 µM | ACHN 83.2 µM | Malme-3M > 100 µM | LOX IMVI > 100 µM | OVCAR-5 > 100 µM | 786-0 > 100 µM | HOP-62 > 100 µM

Cc1noc(C)c1/N=N/c1ccc2nonc2c1N
inactive: PC-3 > 100 µM | T47D > 100 µM | SK-MEL-28 > 100 µM | TK-10 58.7 µM | SK-MEL-5 > 100 µM | SF-295 67.3 µM | K562 > 10 µM | HT-29 > 100 µM | SF-268 > 100 µM | RPMI-8226 > 100 µM | MOLT-4 > 100 µM | ACHN > 100 µM | Malme-3M > 100 µM | LOX IMVI > 100 µM | MDA-MB-435 > 100 µM | OVCAR-5 > 100 µM | 786-0 42.4 µM | HOP-62 79.4 µM

C/C=C/C(=O)N1C(=O)OC[C@@H]1c1ccccc1
inactive: PC-3 18.3 µM | T47D 16.3 µM | SK-MEL-28 21.5 µM | TK-10 17.5 µM | SK-MEL-5 18.7 µM | SF-295 26.7 µM | K562 22.8 µM | HT-29 19.2 µM | A498 26.1 µM | SF-268 20.5 µM | RPMI-8226 26.1 µM | MOLT-4 25.2 µM | ACHN 19.1 µM | Malme-3M 20.4 µM | LOX IMVI 18.2 µM | MDA-MB-435 27.4 µM | OVCAR-5 17.4 µM | 786-0 18.2 µM | HOP-62 20.4 µM

C=CCCCCCCCCCCCC1CCC(CC)N1 (stereo unspecified)
inactive: SK-MEL-28 15.7 µM | TK-10 16.8 µM | SK-MEL-5 10.2 µM | SF-295 13.8 µM | K562 4.7 µM | HT-29 3.67 µM | A498 19.5 µM | SF-268 20.6 µM | RPMI-8226 8.28 µM | MOLT-4 4.06 µM | ACHN 15.7 µM | Malme-3M 16.3 µM | LOX IMVI 9.66 µM | OVCAR-5 10.6 µM | 786-0 9.1 µM | HOP-62 12.3 µM

Cc1nc(C)c(C(=O)Nc2cccc3c2C(=O)NC3=O)cc1C(=O)Nc1cccc2c1C(=O)NC2=O
inactive: SK-MEL-28 > 100 µM | TK-10 > 100 µM | SK-MEL-5 > 100 µM | SF-295 > 100 µM | K562 > 100 µM | HT-29 > 100 µM | A498 > 100 µM | SF-268 > 100 µM | RPMI-8226 > 100 µM | MOLT-4 > 100 µM | ACHN > 100 µM | Malme-3M > 100 µM | LOX IMVI > 100 µM | OVCAR-5 > 100 µM | 786-0 > 100 µM | HOP-62 > 100 µM

CC(C)N(/C(F)=N\C(=O)Nc1ccccc1C(F)(F)F)C(C)C
inactive: PC-3 33.3 µM | SK-MEL-28 81.5 µM | TK-10 52.5 µM | SK-MEL-5 38.4 µM | SF-295 45.6 µM | K562 35.8 µM | HT-29 40.2 µM | SF-268 89.3 µM | RPMI-8226 24.4 µM | MOLT-4 > 10 µM | ACHN 39.4 µM | Malme-3M 31.6 µM | LOX IMVI 32 µM | OVCAR-5 > 100 µM | 786-0 69 µM | HOP-62 75 µM

O=C(CC(C(=O)c1ccsc1)c1cccs1)c1ccccc1 (stereo unspecified)
inactive: T47D 9.57 µM | SK-MEL-28 > 100 µM | TK-10 > 100 µM | SK-MEL-5 70.5 µM | SF-295 98.9 µM | K562 > 100 µM | HT-29 82.8 µM | A498 29.9 µM | SF-268 > 100 µM | RPMI-8226 > 100 µM | MOLT-4 36.2 µM | ACHN > 100 µM | LOX IMVI 78 µM | MDA-MB-435 57.3 µM | OVCAR-5 > 100 µM | 786-0 > 100 µM | HOP-62 > 100 µM

CCn1nc(-c2ccccc2)c2c1N(C)c1ccccc1-n1c(-c3ccccc3)nnc1-2
inactive: PC-3 13.2 µM | T47D 4.63 µM | SK-MEL-28 17.7 µM | TK-10 16 µM | SK-MEL-5 9.25 µM | K562 17.1 µM | A498 1.46 µM | SF-268 16.1 µM | RPMI-8226 9.68 µM | MOLT-4 > 10 µM | ACHN 13.5 µM | LOX IMVI 16.6 µM | MDA-MB-435 > 100 µM | OVCAR-5 19.4 µM | 786-0 16.3 µM | HOP-62 17.9 µM

S=c1sc2c(S)nc(S)nc2n1-c1ccccc1
inactive: SK-MEL-28 > 100 µM | TK-10 > 100 µM | SK-MEL-5 > 100 µM | SF-295 > 100 µM | K562 > 100 µM | HT-29 > 100 µM | A498 41 µM | SF-268 > 100 µM | RPMI-8226 > 100 µM | MOLT-4 > 100 µM | ACHN > 100 µM | Malme-3M > 100 µM | LOX IMVI > 100 µM | OVCAR-5 > 100 µM | 786-0 > 100 µM | HOP-62 > 100 µM
